Results on 14 molecules are retold here after US11286263B2, “Macrocyclic fluorine substituted indole derivatives” (The Broad Institute, Inc., priority 2017, dated 2022).

Several values for one entry are separate records, joined by “and”; a condition that tells them apart may be missing. Equal entries are not always repeated. Structures can show the parent of a compound that is named as a salt. Where two headings read alike, the source gives them in different places. Bounds are passed on as bounds.

The test system of one assay is AMO-1. The assay can be described thus: Antiproliferation assay AMO-1 (Assay 7). The format is cell-based. To be noted: AMO-1 cells, CellTiter-Glo, single determinations, read-out: IC50 Antiproli AMO-1. The method, boiled down:
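Cells were exposed to compounds for 72 h at 37 °C in a humidified incubator, with rim wells excluded. Viability was read by CellTiter-Glo luminescence after a 10 min incubation. A parallel day 0 plate, read the same way, gave the time-zero baseline.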

The next assay concerns the target MCL-1 (Homo sapiens (Human), UniProt Q07820, K194A/K197A/R201A). Put plainly: Protein-compound interaction assay (SPR assay, Assay 8). In kind it is binding. To be noted: immobilized MBP-MCL-1, 25° C., geometric mean. From the text: Assay 8 Protein-Compound Interaction Assay (SPR Assay)
The ability of the compounds described in this invention to bind to MCL-1 may be determined using surface plasmon resonance (SPR). This allows for the quantification of binding in terms of the equilibrium dissociation constant (KD [M]), as well as association and dissociation rate constants (kon [1/M 1/s] and koff [1/s], respectively). The measurements may be performed using Biacore® T200 or Biacore® S200 instruments (GE Healthcare).
For SPR measurements, recombinant MCL-1 (amino acids 173-321, N-terminal fused to Maltose Binding Protein (MBP) (SEQ ID 1) purchased from Beryllium (Bedford, Mass., USA)) was immobilized using standard amine coupling (Johnsson B et al, Anal Biochem. 1991 Nov. 1; 198(2):268-77). Briefly, carboxymethylated dextran biosensor chips (Series S Sensor Chip CMS, GE Healthcare) were activated with 1-ethyl-3-(3-dimethylaminopropyl)-carbodiimide hydrochloride (EDC) and N-hydroxysuccinimide (NHS) according to the supplier's instructions. MBP-MCL-1 was diluted in 1×PBS-P+ (GE Healthcare) and injected on the activated chip surface. Subsequently, a solution of 1 M ethanolamine-HCl (GE Healthcare) was injected to block unreacted groups, resulting in approximately 400-2500 response units (RU) of immobilized protein. A reference surface was generated by treatment with NHS-EDC and ethanolamine-HCl. […] For SPR binding-measurements, serial dilutions of compound (eight dilution steps, typically ranging from 0.2 nM up to 1 μM) were injected over immobilized protein. […] Compounds were injected for 60 s followed by a dissociation time of up to 1000 s.
The double-referenced sensorgrams were fit to a simple reversible Langmuir 1:1 reaction mechanism as implemented in the Biacore® T200 and S200 evaluation software (T200 evaluation software version 2.0 and S200 evaluation software version 1.0, GE Healthcare).

The next assay deals with HMC-1-8. Put plainly: Antiproliferation assay HMC-1-8 (Assay 7). Particulars: HMC-1-8 cells, 72 h, CellTiter-Glo; single determinations; read-out: IC50 Antiproli HMC-1-8. The format is cell-based. The protocol:
Assessment of the Anti-Proliferative Effect of Compounds in Different Cell Lines
The impact of compounds on the proliferation of different cell lines was assessed using the CellTiter-Glo® Luminescent Cell Viability reagent from Promega (G7573).
In parallel, cells were plated in a reference (day 0) plate for time zero determination.
Rim wells were excluded. The cells were incubated for 72 h hours in a humidified incubator at 37° C. The day 0 plate was measured by adding 30 μL/well of CTG solution (CellTiter-Glo® Luminescent Cell Viability reagent, Promega G7573) to time zero wells in the reference plate followed by a 10 minutes incubation and luminescence reading at 0.1 ms. using the PHERAstar FS microplate reader (BMG Labtech).
After 72 h incubation, the treated plates were measured in the same way as the day 0 plate mentioned above.

Sequence of MCL-1 (Q07820 whole entry K194A/K197A/R201A, looked up): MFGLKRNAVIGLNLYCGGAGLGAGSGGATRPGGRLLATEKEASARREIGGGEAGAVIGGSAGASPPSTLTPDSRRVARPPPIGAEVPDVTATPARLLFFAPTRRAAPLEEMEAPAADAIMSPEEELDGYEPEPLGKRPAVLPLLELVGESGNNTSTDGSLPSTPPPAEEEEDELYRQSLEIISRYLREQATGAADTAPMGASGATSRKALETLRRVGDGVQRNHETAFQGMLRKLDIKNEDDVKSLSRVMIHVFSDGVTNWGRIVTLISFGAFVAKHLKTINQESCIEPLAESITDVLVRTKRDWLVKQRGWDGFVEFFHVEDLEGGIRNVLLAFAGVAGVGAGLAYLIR

Turning to `CCc1c2c(nn1C)COCCCCn1c(C(=O)O)c(CCCOc3cccc4c3CCCC4)c3ccc(F)c-2c31` (racemic) [Example 29, (rac)-12-ethyl-13-fluoro-11-methyl-1-(3-((5,6,7,8-tetrahydronaphthalen-1-yl)oxy)propyl)-4,5,6,7,9,11-hexahydropyrazolo[4′,3′:9,10][1]oxa[6]azacycloundecino[8,7,6-hi]indole-2-carboxylic acid], the concentration for half-maximal inhibition (IC50) in the assay with AMO-1 (Homo sapiens, AMO1, 72 h) is 2440 nM.
For the molecule `CCc1c2c(nn1C)COCCCCn1c(C(=O)O)c(CCCOc3cc(C)c(Cl)c(C)c3)c3ccc(F)c-2c31` (racemic) [Example 31, (rac)-1-(3-(4-chloro-3,5-dimethylphenoxy)propyl)-12-ethyl-13-fluoro-11-methyl-4,5,6,7,9,11-hexahydropyrazolo[4′,3′:9,10][1]oxa[6]azacycloundecino[8,7,6-hi]indole-2-carboxylic acid], the half-maximal inhibitory concentration (IC50) in the assay on AMO-1 (Homo sapiens, AMO1, 72 h) is over 33000 nM.
Still for that read-out and setting: for `Cc1nn(C)c2c1-c1c(F)ccc3c(CCCOc4cccc5c4CCCC5)c(C(=O)O)n(c13)CCCCOC2` (racemic) [Example 34, (rac)-13-fluoro-10,12-dimethyl-1-(3-((5,6,7,8-tetrahydronaphthalen-1-yl)oxy)propyl)-4,5,6,7,9,10-hexahydropyrazolo[4′,3′:9,10][1]oxa[6]azacycloundecino[8,7,6-hi]indole-2-carboxylic acid] the value was 6920 nM; for `CCc1nn(C)c2c1-c1c(F)ccc3c(CCCOc4cccc5c4CCCC5)c(C(=O)O)n(c13)CCCCOC2` (racemic) [Example 44, (rac)-12-ethyl-13-fluoro-10-methyl-1-(3-((5,6,7,8-tetrahydronaphthalen-1-yl)oxy)propyl)-4,5,6,7,9,10-hexahydropyrazolo[4′,3′:9,10][1]oxa[6]azacycloundecino[8,7,6-hi]indole-2-carboxylic acid], 7410 nM.
Same read-out and setting: the value for `CCc1nn(C)c2c1-c1c(F)ccc3c(CCCOc4cccc5c4CCC5)c(C(=O)O)n(c13)CCCCOC2` (racemic) [Example 45, (rac)-1-(3-((2,3-dihydro-1H-inden-4-yl)oxy)propyl)-12-ethyl-13-fluoro-10-methyl-4,5,6,7,9,10-hexahydropyrazolo[4′,3′:9,10][1]oxa[6]azacycloundecino[8,7,6-hi]indole-2-carboxylic acid] was 6450 nM.
Turning to `CCc1nn(C)c2c1-c1c(F)ccc3c(CCCOc4cc(C)c(Cl)c(C)c4)c(C(=O)O)n(c13)CCCCOC2` (racemic) [Example 46, (rac)-1-(3-(4-chloro-3,5-dimethylphenoxy)propyl)-12-ethyl-13-fluoro-10-methyl-4,5,6,7,9,10-hexahydropyrazolo[4′,3′:9,10][1]oxa[6]azacycloundecino[8,7,6-hi]indole-2-carboxylic acid], the IC50 in the assay on AMO-1 (72 h) worked out at 9100 nM; with AMO-1 (Homo sapiens, AMO1, 72 h), 8170 nM.
In the case of `CCc1c2c(nn1C)COCCCCn1c(C(=O)O)c(CCCOc3cccc4ccccc34)c3ccc(F)c-2c31` (single isomer, unassigned; enantiomer 1) [Example 7, 3-ethyl-4-fluoro-2-methyl-7-{3-[(naphthalen-1-yl)oxy]propyl}-2,10,11,12,13,15-hexahydro-pyrazolo[4′,3′:9,10][1,6]oxazacycloundecino[8,7,6-hi]indole-8-carboxylic acid-N-ethylethanamine salt (enantiomer 1)], on MCL-1, the affinity, expressed as Kd, was 2.3 nM and the kon came to 6e+06 M⁻¹ s⁻¹. Moreover, the koff at MCL-1 (read-out: koff) was 0.014 s⁻¹. For the same molecule, the IC50 with AMO-1 (Homo sapiens, AMO1, 72 h) worked out at 1910 nM.
In the case of `Cc1c2c(nn1C)COCCCCn1c(C(=O)O)c(CCCOc3cccc4cc(F)ccc34)c3ccc(F)c-2c31` (single isomer, unassigned; enantiomer 1) [Example 13, 4-fluoro-7-{3-[(6-fluoronaphthalen-1-yl)oxy]propyl}-2,3-dimethyl-2,10,11,12,13,15-hexahydro-pyrazolo[4′,3′:9,10][1,6]oxazacycloundecino[8,7,6-hi]indole-8-carboxylic acid-N-ethylethanamine salt (enantiomer 1)], at MCL-1, the Kd was 0.69 nM and the kon came out at 1.1e+07 M⁻¹ s⁻¹. Further, at MCL-1 (read-out: koff), the off-rate (koff) amounted to 0.0077 s⁻¹. Besides, in the assay with AMO-1 (72 h), the IC50 was 747 nM and 564 nM.
On to `Cc1c2c(nn1C)COCCCCn1c(C(=O)O)c(CCCOc3ccc(F)c4ccccc34)c3ccc(F)c-2c31` (single isomer, unassigned; enantiomer 1) [Example 16, 4-fluoro-7-{3-[(4-fluoronaphthalen-1-yl)oxy]propyl}-2,3-dimethyl-2,10,11,12,13,15-hexahydro-pyrazolo[4′,3′:9,10][1,6]oxazacycloundecino[8,7,6-hi]indole-8-carboxylic acid (enantiomer 1)], for which the IC50 in the assay with AMO-1 (72 h) turned out to be 6950 nM.
`CCc1c2c(nn1C)COCCCCn1c(C(=O)O)c(CCCOc3cccc4cc(F)ccc34)c3ccc(F)c-2c31` (single isomer, unassigned; enantiomer 1) [Example 24, 3-ethyl-4-fluoro-7-{3-[(6-fluoronaphthalen-1-yl)oxy]propyl}-2-methyl-2,10,11,12,13,15-hexahydropyrazolo[4′,3′:9,10][1,6]oxazacycloundecino[8,7,6-hi]indole-8-carboxylic acid (enantiomer 1)] yielded a Kd at MCL-1 of 2.9 nM. This molecule also displayed a kon at MCL-1 of 3.3e+06 M⁻¹ s⁻¹. In addition, at MCL-1 (read-out: koff), the koff came out at 0.0097 s⁻¹. Further, the results for the half-maximal inhibitory concentration (IC50) in the assay with AMO-1 (72 h) and in the assay with HMC-1-8 were 878 nM and 2500 nM, respectively.
In the case of `CCc1c2c(nn1C)COCCCCn1c(C(=O)O)c(CCCOc3ccc(F)c4ccccc34)c3ccc(F)c-2c31` (single isomer, unassigned; enantiomer 1) [Example 27, 3-ethyl-4-fluoro-7-{3-[(4-fluoronaphthalen-1-yl)oxy]propyl}-2-methyl-2,10,11,12,13,15-hexahydropyrazolo[4′,3′:9,10][1,6]oxazacycloundecino[8,7,6-hi]indole-8-carboxylic acid-N-ethylethanamine salt (enantiomer 1)], the half-maximal inhibitory concentration (IC50) in the assay on AMO-1 (72 h) is 1330 nM and 2530 nM.
With `CCc1nn(C)c2c1-c1c(F)ccc3c(CCCOc4ccc(F)c5ccccc45)c(C(=O)O)n(c13)CCCCOC2` (single isomer, unassigned; enantiomer 1) [Example 42, 3-ethyl-4-fluoro-7-{3-[(4-fluoronaphthalen-1-yl)oxy]propyl}-1-methyl-1,10,11,12,13,15-hexahydropyrazolo[4′,3′:9,10][1,6]oxazacycloundecino[8,7,6-hi]indole-8-carboxylic acid (enantiomer 1)], the IC50 in the assay with AMO-1 (72 h) is 6960 nM.
Take `Cc1c2c(nn1C)CNCCCCn1c(C(=O)O)c(CCCOc3cccc4ccccc34)c3ccc(F)c-2c31` (single isomer, unassigned; enantiomer 1) [Example 48, 4-fluoro-2,3-dimethyl-7-{3-[(naphthalen-1-yl)oxy]propyl}-10,11,12,13,14,15-hexahydro-2H-pyrazolo[3′,4′:8,9][1,6]diazacycloundecino[10,11,1-hi]indole-8-carboxylic acid (enantiomer 1)]: in the assay on AMO-1 (72 h), the IC50 was 2860 nM.
For `CCc1c2c(nn1C)COCCCCn1c(C(=O)O)c(CCCOc3cccc4cc(F)ccc34)c3ccc(F)c-2c31` (single isomer, unassigned; enantiomer 2) [Example 23, 3-ethyl-4-fluoro-7-{3-[(6-fluoronaphthalen-1-yl)oxy]propyl}-2-methyl-2,10,11,12,13,15-hexahydropyrazolo[4′,3′:9,10][1,6]oxazacycloundecino[8,7,6-hi]indole-8-carboxylic acid-N-ethylethanamine salt (enantiomer 2)], at MCL-1, the equilibrium dissociation constant (Kd) was found to be 27 nM, the “koff” value was found to be 0.0026 s⁻¹ and the “kon [1/M 1/s]” value is given as 9.7E4 1/M 1/s.
